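Tested at 5 concentrations; 48 h exposure; 96-well plates; endpoints linearly interpolated, else capped at highest concentration. Abbreviation: GI50, concentration required for 50% inhibition of growth.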 Active and inactive are the calls of the source. Cut-off read from the data, not from the text of the source: active = GI50 up to about 1.1 µM and inactive = higher.
Assays:
Assay in all cases: NCI anticancer screen, dose series, 48 h
ACHN = tested on: ACHN
K562 = tested on: K562
SNB-19 = tested on: SNB-19
LOX IMVI = tested on: LOX IMVI
SF-295 = tested on: SF-295
SW-620 = tested on: SW-620
HOP-92 = tested on: HOP-92
NCI-H460 = tested on: NCI-H460
OVCAR-3 = tested on: OVCAR-3
KM-20L2 = tested on: KM-20L2
UO-31 = tested on: UO-31
RXF 393 = tested on: RXF 393
OVCAR-8 = tested on: OVCAR-8
CAKI-1 = tested on: CAKI-1
SK-OV-3 = tested on: SK-OV-3
EKVX = tested on: EKVX
RPMI-8226 = tested on: RPMI-8226
KM12 = tested on: KM12
NCI-H226 = tested on: NCI-H226

Measured: GI50

CC1OC(n2cc(Cl)c(=O)[nH]c2=O)C=C(OC(=O)c2ccccc2)C1=O (stereo not drawn)
inactive: ACHN > 100 µM | K562 > 100 µM | SNB-19 > 100 µM | LOX IMVI > 100 µM | SF-295 > 100 µM | SW-620 > 100 µM | HOP-92 > 100 µM | NCI-H460 > 100 µM | OVCAR-3 > 100 µM | KM-20L2 > 100 µM | UO-31 > 100 µM | RXF 393 > 100 µM | OVCAR-8 > 100 µM | CAKI-1 > 100 µM | SK-OV-3 > 100 µM | EKVX > 100 µM | RPMI-8226 > 100 µM

C=C(c1ccccc1N)[C@@]1(O)C[C@H](/C(=C\C)CO)C[C@@H]1NCc1ccccc1
inactive: ACHN 36.8 µM | K562 18.6 µM | SNB-19 23.2 µM | LOX IMVI 17.1 µM | SF-295 16.9 µM | SW-620 21.7 µM | HOP-92 3.78 µM | NCI-H460 20.7 µM | OVCAR-3 18.2 µM | KM-20L2 17.3 µM | UO-31 17.4 µM | RXF 393 16.7 µM | OVCAR-8 24.5 µM | SK-OV-3 21.5 µM | EKVX 37.1 µM | RPMI-8226 19.1 µM | KM12 18.2 µM | NCI-H226 15 µM

C#CCN(N=O)C(=O)NCCCCC(NC(=O)OCc1ccccc1)C(=O)OCc1ccccc1 (stereo not drawn)
inactive: ACHN 61.5 µM | K562 23.3 µM | SNB-19 > 100 µM | LOX IMVI 14.5 µM | SF-295 > 100 µM | SW-620 17.4 µM | HOP-92 20.3 µM | NCI-H460 98.2 µM | OVCAR-3 25.5 µM | KM-20L2 > 100 µM | UO-31 > 100 µM | RXF 393 25.4 µM | OVCAR-8 38.9 µM | CAKI-1 24 µM | SK-OV-3 > 100 µM | EKVX > 100 µM | RPMI-8226 31.9 µM | KM12 > 100 µM | NCI-H226 > 100 µM

Cc1cc(NS(=O)(=O)c2ccc(Nc3c4ccccc4nc4c(C(=O)Nc5ccc(S(N)(=O)=O)cc5)cccc34)cc2)no1
inactive: ACHN > 100 µM | K562 44.3 µM | SNB-19 32.7 µM | LOX IMVI 35 µM | SF-295 > 100 µM | SW-620 74.3 µM | HOP-92 33 µM | NCI-H460 > 100 µM | OVCAR-3 16 µM | KM-20L2 > 100 µM | UO-31 80.9 µM | RXF 393 90.6 µM | OVCAR-8 51.9 µM | CAKI-1 > 100 µM | SK-OV-3 > 100 µM | EKVX > 100 µM | RPMI-8226 > 100 µM | KM12 20.6 µM

NS(=O)(=O)c1cc2c(cc1Cl)NC(/C(=N/NC(=O)c1ccncc1)C1C(=O)NC(=O)NC1=O)=NS2(=O)=O
inactive: ACHN > 100 µM | K562 > 100 µM | SNB-19 83.6 µM | LOX IMVI > 100 µM | SF-295 > 100 µM | SW-620 > 100 µM | HOP-92 > 100 µM | NCI-H460 > 100 µM | OVCAR-3 > 100 µM | KM-20L2 > 100 µM | UO-31 95.3 µM | OVCAR-8 > 100 µM | CAKI-1 > 100 µM | SK-OV-3 > 100 µM | EKVX > 100 µM | RPMI-8226 > 100 µM | KM12 > 100 µM

COc1cc2c(oc(=O)c3c4occc4cc(OC)c23)c2cccc(O)c12
inactive: ACHN > 100 µM | K562 > 100 µM | SNB-19 > 100 µM | LOX IMVI > 100 µM | SF-295 > 100 µM | SW-620 > 100 µM | HOP-92 > 100 µM | NCI-H460 > 100 µM | OVCAR-3 > 100 µM | KM-20L2 > 100 µM | UO-31 > 100 µM | RXF 393 > 100 µM | OVCAR-8 > 100 µM | CAKI-1 > 100 µM | SK-OV-3 > 100 µM | EKVX > 100 µM | RPMI-8226 > 100 µM | KM12 > 100 µM | NCI-H226 > 100 µM

COc1ccc(C=O)c(N(C)C(=O)C(C)(C)C)c1
inactive: ACHN > 100 µM | K562 > 100 µM | SNB-19 > 100 µM | LOX IMVI > 100 µM | SF-295 > 100 µM | SW-620 > 100 µM | HOP-92 > 100 µM | NCI-H460 > 100 µM | OVCAR-3 > 100 µM | KM-20L2 > 100 µM | UO-31 > 100 µM | RXF 393 > 100 µM | OVCAR-8 > 100 µM | SK-OV-3 > 100 µM | EKVX > 100 µM | RPMI-8226 > 100 µM | KM12 > 100 µM | NCI-H226 > 100 µM

Cc1noc2cccc(O)c12
inactive: ACHN > 100 µM | K562 > 100 µM | SNB-19 > 100 µM | LOX IMVI > 100 µM | SF-295 > 100 µM | SW-620 > 100 µM | HOP-92 > 100 µM | NCI-H460 > 100 µM | OVCAR-3 > 100 µM | KM-20L2 > 100 µM | UO-31 > 100 µM | RXF 393 > 100 µM | OVCAR-8 > 100 µM | CAKI-1 > 100 µM | SK-OV-3 > 100 µM | EKVX > 100 µM | KM12 > 100 µM | NCI-H226 > 100 µM

CC(/C=C1\CCC(CN(C)C)C1=O)c1cccc(Br)c1 (stereo not drawn)
inactive: ACHN 13.4 µM | K562 2.77 µM | SNB-19 26 µM | SF-295 22.2 µM | SW-620 8.18 µM | HOP-92 18.2 µM | NCI-H460 29.6 µM | OVCAR-3 17 µM | KM-20L2 21.4 µM | UO-31 19.1 µM | RXF 393 13.3 µM | OVCAR-8 18.2 µM | CAKI-1 8.15 µM | SK-OV-3 65.2 µM | EKVX 20.9 µM | RPMI-8226 2 µM | KM12 10.1 µM | NCI-H226 22.3 µM

Cc1cc(NS(=O)(=O)c2ccc(NC(=O)c3cccc4c(N)c5ccccc5nc34)cc2)no1
inactive: ACHN 20 µM | K562 31.2 µM | SNB-19 17.4 µM | LOX IMVI 23.4 µM | SF-295 23.6 µM | SW-620 30 µM | NCI-H460 32.9 µM | OVCAR-3 21.7 µM | KM-20L2 34.1 µM | UO-31 33.3 µM | RXF 393 16.3 µM | OVCAR-8 21.8 µM | CAKI-1 34.8 µM | SK-OV-3 32.5 µM | EKVX 90.8 µM | RPMI-8226 24 µM | KM12 18.9 µM | NCI-H226 17.7 µM

COc1nc(=O)cc(N)n1C1OC(CO)C(O)C1O (stereo not drawn)
inactive: ACHN > 100 µM | K562 > 100 µM | SNB-19 > 100 µM | LOX IMVI > 100 µM | SF-295 > 100 µM | SW-620 > 100 µM | NCI-H460 > 100 µM | OVCAR-3 > 100 µM | KM-20L2 > 100 µM | UO-31 > 100 µM | RXF 393 > 100 µM | OVCAR-8 > 100 µM | CAKI-1 > 100 µM | SK-OV-3 > 100 µM | EKVX > 100 µM | RPMI-8226 > 100 µM | KM12 > 100 µM | NCI-H226 > 100 µM

Reference: ChEMBL document CHEMBL1201862, “PubChem BioAssay data set” (2004)
